Among the data in patent US8729074B2, “Inhibitors of PI3 kinase” (Amgen Inc., priority 2009, dated 2014) are Ki and IC50 values, retold here.

Bounds are passed on as bounds.

Assay [1] has as its target T1, PI3Kα (Homo sapiens (Human), UniProt P42336). In words: In vitro PI3K AlphaScreen assay. To be noted: average if run more than once. The format is biochemical. Here is the method:
In Vitro PI3K AlphaScreen® Assay
The PI3K AlphaScreen® assay (PerkinElmer, Waltham, Mass.) measures the activity of a panel of four phosphoinositide 3-kinases: PI3Kα, PI3Kβ, PI3Kγ, and PI3Kδ. Each of these enzymes phosphorylates the 3′-hydroxyl group on phosphatidylinositiol (4,5)-bisphosphate (PIP2) to produce phosphatidylinositol (3,4,5)-trisphosphate (PIP3). This phosphorylation activity is measured using a GST-tagged PIP3 binding protein (Echelon Biosciences, Salt Lake City, Utah), an anti-GST-tagged Acceptor bead, and streptavidin-Donor bead. […] In the absence of this interaction, proximity of the Donor and Acceptor beads is decreased, producing a loss of luminescent signal which is inversely proportional to PI3K activity.
The enzyme reaction buffer is made using sterile water (Baxter, Deerfield, Ill.) and 50 mM Tris HCl pH 7, 14 mM MgCl2, 2 mM sodium cholate, and 100 mM NaCl. 2 mM DTT is added fresh the day of the experiment. The AlphaScreen® reaction buffer is made using sterile water and 10 mM Tris HCl pH 7.5, 150 mM NaCl, 0.10% Tween 20, and 30 mM EDTA. 1 mM DTT is added fresh the day of the experiment.
The source plates for this assay are 384-well Greiner clear polypropylene plates containing test compounds at 5 mM and diluted 1:2 over 22 points. Columns 23 and 24 contain only DMSO as these are designated for positive and negative controls. Source plates are replicated into 384-well Optiplates (PerkinElmer, Waltham, Mass.), 0.5 μL/well, to make assay-ready plates.
The different PI3K isoforms are each diluted in enzyme reaction buffer to 2× working solutions. […] Two different 2× substrate solutions are made in enzyme reaction buffer. In one solution, PI(4,5)P2 (Echelon Biosciences, Salt Lake City, Utah) is diluted to 10 μM and ATP is diluted to 20 μM. This solution is used in the assays testing PI3Kα and PI3Kβ. In a second solution, PI(4,5)P2 is diluted to 10 μM and ATP is diluted to 8 μM. This solution is used in the assays testing PI3Kγ and PI3Kδ.
The AlphaScreen® reaction solutions are made using beads from the anti-GST AlphaScreen® kit (PerkinElmer, Waltham, Mass.). Two solutions are made in Alphascreen reaction buffer to 4× working concentrations. In one solution, biotinylated-IP4 (Echelon Biosciences, Salt Lake City, Utah) is diluted to 40 nM and streptavadin-Donor Beads are diluted to 80 μg/mL. In the second solution, PIP3-binding protein (Echelon Biosciences, Salt Lake City, Utah) is diluted to 40 nM and anti-GST-Acceptor Beads are diluted to 80 μg/mL. 10 μL/well of enzyme reaction buffer is added to Column 24 of the assay ready plates in place of enzyme. This is done for plates in the PI3Kα, β, and δ assays.
Using a 384-well dispensing Multidrop (Titertek, Huntsville, Ala.), 10 μL/well of 2× enzyme (PI3Kα, β, δ) is added to Columns 1-23 of the appropriate assay ready plates (for PI3Kγ 10 μL is added to Columns 1-24). 10 μL/well of the appropriate substrate solution (the solution with 20 μM ATP for PI3Kα and β assays, and the solution with […] for PI3Kγ and δ assays) is then added to Columns 1-24 of the plates. Plates are then incubated at room temperature for 20 minutes.
In the dark, 10 μL/well of the Donor Bead solution is added to Columns 1-24 of the plates to quench the enzyme reaction. The plates are incubated at room temperature for 30 minutes. Still in the dark, 10 μL/well of the Acceptor Bead solution is also added to Columns 1-24 of the plates. The plates are then incubated in the dark for 1.5 hours. The plates are read on an Envision Multilabel Plate Reader (PerkinElmer, Waltham, Mass.) with a 680 nm excitation filter and a 520-620 nm emission filter.
Activity data for the compounds tested in the assay is provided in Table 1 under the column heading PI3Kα AlphaScreen®.
A general note: Bead proximity is the source of the signal in Alpha formats.

Assay [2] addresses T1, PI3Kα. As to the kind of experiment: In vitro PI3 kinase enzyme assay (PI3K ATPLoss). The following applies: average if run more than once. It is filed as biochemical. Here is the method: Recombinant Expression of PI3K Enzymes
Full length p110 subunits of PI3K α, β and δ, N-terminally labeled with polyHis tag, can be co-expressed with p85 with Baculo virus expression vectors in sf9 insect cells. P110/p85 heterodimers can be purified by sequential Ni-NTA, Q-HP, Superdex-100 chromatography. Purified α, β and δ isozymes can be stored at −20° C. in 20 mM Tris, pH 8, 0.2M NaCl, 50% glycerol, 5 mM DTT, 2 mM Na cholate. […] The γ isozyme can be purified by sequential Ni-NTA, Superdex-200, Q-HP chromatography. The γ isozyme can be stored frozen at −80° C. in NaH2PO4, pH 8, 0.2M NaCl, 1% ethylene glycol, 2 mM β-mercaptoethanol.
In Vitro PI3 Kinase Enzyme Assays (PI3K ATPLoss)
PI3K enzyme assays (alpha, beta, delta and gamma) can be performed in 25 μL with the above final concentrations of components in white polyproplyene plates. Phosphatidyl inositol phosphoacceptor, PtdIns(4,5)P2 (e.g., P4508) can be obtained from Echelon Biosciences, Salt Lake City, Utah. […] Test compounds can be dissolved in DMSO and diluted with three-fold serial dilutions. The compound in DMSO (1 μL) may be added per test well, and the inhibition relative to reactions containing no compound, with and without enzyme can be determined. After assay incubation at RT, the reaction can be stopped and residual ATP can be determined by addition of an equal volume of a commercial ATP bioluminescence kit (Perkin Elmer EasyLite, Perkin Elmer, Waltham, Mass.) according to the manufacturer's instructions, and detected using an Analyst GT luminometer.

T1 sequence (P42336 whole entry): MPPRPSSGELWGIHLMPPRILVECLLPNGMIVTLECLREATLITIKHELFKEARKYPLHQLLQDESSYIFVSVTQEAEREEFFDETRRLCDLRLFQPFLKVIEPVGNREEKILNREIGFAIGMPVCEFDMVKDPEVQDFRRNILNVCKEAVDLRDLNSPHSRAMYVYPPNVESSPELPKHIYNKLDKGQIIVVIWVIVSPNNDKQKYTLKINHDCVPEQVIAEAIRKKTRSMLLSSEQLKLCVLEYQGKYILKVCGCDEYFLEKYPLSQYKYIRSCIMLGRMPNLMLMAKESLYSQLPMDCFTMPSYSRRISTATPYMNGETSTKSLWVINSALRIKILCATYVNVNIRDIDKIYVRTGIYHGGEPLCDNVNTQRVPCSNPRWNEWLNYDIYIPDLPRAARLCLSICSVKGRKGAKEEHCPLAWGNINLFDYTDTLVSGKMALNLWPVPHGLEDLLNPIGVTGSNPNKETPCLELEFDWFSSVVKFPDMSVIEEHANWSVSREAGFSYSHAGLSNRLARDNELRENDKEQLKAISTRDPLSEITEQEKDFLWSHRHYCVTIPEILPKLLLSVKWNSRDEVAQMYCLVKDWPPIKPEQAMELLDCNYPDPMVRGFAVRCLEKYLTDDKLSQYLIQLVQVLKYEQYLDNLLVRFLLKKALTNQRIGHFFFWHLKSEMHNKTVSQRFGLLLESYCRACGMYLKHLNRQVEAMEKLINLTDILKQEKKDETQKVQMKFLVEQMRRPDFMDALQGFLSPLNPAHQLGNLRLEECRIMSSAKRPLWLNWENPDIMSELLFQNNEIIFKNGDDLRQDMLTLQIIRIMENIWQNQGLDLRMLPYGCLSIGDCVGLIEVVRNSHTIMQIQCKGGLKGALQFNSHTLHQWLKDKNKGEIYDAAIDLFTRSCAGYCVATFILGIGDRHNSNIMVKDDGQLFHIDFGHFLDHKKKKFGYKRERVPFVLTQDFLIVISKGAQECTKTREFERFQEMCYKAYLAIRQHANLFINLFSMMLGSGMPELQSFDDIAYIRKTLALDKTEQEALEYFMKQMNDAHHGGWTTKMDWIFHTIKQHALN
T1 sequence (P27986 whole entry partner): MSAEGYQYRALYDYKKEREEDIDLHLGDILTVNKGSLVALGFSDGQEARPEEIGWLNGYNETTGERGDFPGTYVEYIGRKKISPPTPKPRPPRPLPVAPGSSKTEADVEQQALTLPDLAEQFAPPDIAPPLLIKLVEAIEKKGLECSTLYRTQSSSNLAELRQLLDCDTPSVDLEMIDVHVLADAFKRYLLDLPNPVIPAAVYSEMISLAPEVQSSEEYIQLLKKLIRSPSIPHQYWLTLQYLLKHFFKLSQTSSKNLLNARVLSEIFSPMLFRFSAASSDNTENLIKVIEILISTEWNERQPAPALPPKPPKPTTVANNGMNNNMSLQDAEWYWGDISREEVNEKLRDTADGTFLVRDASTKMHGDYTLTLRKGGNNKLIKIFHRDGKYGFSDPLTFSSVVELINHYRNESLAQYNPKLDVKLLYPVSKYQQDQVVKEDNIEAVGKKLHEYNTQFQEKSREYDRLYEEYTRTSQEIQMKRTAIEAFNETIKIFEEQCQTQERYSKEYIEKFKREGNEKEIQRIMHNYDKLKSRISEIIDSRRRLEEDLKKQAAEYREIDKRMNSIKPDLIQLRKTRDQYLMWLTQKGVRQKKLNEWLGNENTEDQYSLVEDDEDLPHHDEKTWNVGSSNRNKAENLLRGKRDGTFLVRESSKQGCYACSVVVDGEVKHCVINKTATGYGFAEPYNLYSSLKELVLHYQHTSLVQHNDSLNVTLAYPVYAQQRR

As usually defined, the Ki is the equilibrium dissociation constant of an inhibitor or competing ligand from its target. A lower Ki goes with a stronger hold on the target. Broadly, the IC50 is the midpoint of a concentration-inhibition curve. A high value points to weaker potency. Take `COc1cc(-c2cnc3ccc(-c4ccncc4)cn23)cnc1OC` [Example 12, 3-(5,6-Dimethoxy-3-pyridinyl)-6-(4-pyridinyl)imidazo[1,2-a]pyridine]: in assay [1], the Ki is 626 nM. Also, the IC50 in assay [2] came to 861 nM. Take `O=S(=O)(Nc1cc(-c2cnc3ccc(-c4cccnc4)cn23)cnc1Cl)c1ccc(F)cc1` [Example 8, N-(2-Chloro-5-(6-(3-pyridinyl)imidazo[1,2-a]pyridin-3-yl)-3-pyridinyl)-4-fluorobenzenesulfonamide]: the affinity in assay [1] corresponds to a Ki of 1 nM. In assay [2], the IC50 turned out to be 4 nM. `COc1cc(-c2cnc3ccccn23)cnc1OC` [Example 10, 3-(5,6-Dimethoxy-3-pyridinyl)imidazo[1,2-a]pyridine]: the inhibition constant Ki in assay [1] was > 1500 nM. Besides, the IC50 in assay [2] came out at 15700 nM. Turning to `Cc1ccn2c(-c3cnc(Cl)c(NS(=O)(=O)c4ccc(F)cc4)c3)cnc2c1` [Example 4, N-(2-Chloro-5-(7-methylimidazo[1,2-a]pyridin-3-yl)-3-pyridinyl)-4-fluorobenzenesulfonamide], affinity in assay [1] was put at a Ki of 19 nM. For the same compound, half-maximal inhibition in assay [2] (IC50) required 13 nM. The corresponding values for `O=S(=O)(Nc1cc(-c2cnc3ccc(Br)cn23)cnc1Cl)c1ccc(F)cc1` [Example 6, N-(5-(6-Bromoimidazo[1,2-a]pyridin-3-yl)-2-chloro-3-pyridinyl)-4-fluorobenzenesulfonamide] are 6 nM and 14 nM. Compound `CN(C)S(=O)(=O)Nc1cc(-c2cnc3cc(-c4ccncc4)ccn23)cnc1Cl` [Example 21, N′-(2-Chloro-5-(7-(4-pyridinyl)imidazo[1,2-a]pyridin-3-yl)-3-pyridinyl)-N,N-dimethylsulfamide] returned a Ki in assay [1] of 15 nM. Same read-out and setting: the same measure for `Cc1cc2ncc(-c3cnc(Cl)c(NS(=O)(=O)N(C)C)c3)n2cc1-c1ccncc1` [Example 23, N′-(2-Chloro-5-(7-methyl-6-(4-pyridinyl)imidazo[1,2-a]pyridin-3-yl)-3-pyridinyl)-N,N-dimethylsulfamide]: 4 nM. Compound `COc1cc(-c2cnc3ccc(Br)cn23)cnc1OC` [Example 11, 6-Bromo-3-(5,6-dimethoxy-3-pyridinyl)imidazo[1,2-a]pyridine] gave a Ki in assay [1] of 779 nM. Moreover, the IC50 in assay [2] is 1500 nM.

`CN(C)S(=O)(=O)Nc1cc(-c2cnc3ccc(-c4ccncc4)cn23)cnc1Cl` [Example 18, N-(2-Chloro-5-(6-(pyridin-4-yl)imidazo[1,2-a]pyridin-3-yl)pyridin-3-yl)dimethylaminosulfonamide]: the Ki in assay [1] turned out to be 1 nM. In assay [1], `O=S(=O)(Nc1cc(-c2cnc3ccc(N4CCOCC4)cn23)cnc1Cl)c1ccc(F)cc1` [Example 9, N-(2-Chloro-5-(6-(4-morpholinyl)imidazo[1,2-a]pyridin-3-yl)-3-pyridinyl)-4-fluorobenzenesulfonamide] displayed an inhibition constant Ki of 4 nM. The compound further gave an IC50 in assay [2] of 6 nM. In turn, `CS(=O)(=O)Nc1cc(-c2cnc3cc(-c4cccnc4)ccn23)cnc1Cl` [Example 20, N-(2-Chloro-5-(7-(pyridin-3-yl)imidazo[1,2-a]pyridin-3-yl)pyridin-3-yl)methanesulfonamide] came in with a Ki in assay [1] of 5 nM. Compound `O=S(=O)(Nc1cc(-c2cnc3ccc(-c4ccncc4)cn23)cnc1Cl)c1ccc(F)cc1` [Example 7, N-(2-Chloro-5-(6-(4-pyridinyl)imidazo[1,2-a]pyridin-3-yl)-3-pyridinyl)-4-fluorobenzenesulfonamide] yielded an inhibition constant (Ki) in assay [1] of 2 nM. In addition, the half-inhibitory concentration (IC50) in assay [2] was determined as 5 nM. In turn, `CN(C)S(=O)(=O)Nc1cc(-c2cnc3ccc(-c4ccnc(C(F)(F)F)c4)cn23)cnc1Cl` [Example 19, N-(2-Chloro-5-(6-(2-(trifluoromethyl)pyridin-4-yl)imidazo[1,2-a]pyridin-3-yl)pyridin-3-yl)dimethylaminosulfonamid] had a Ki in assay [1] of 1 nM.

Consider `O=S(=O)(Nc1cc(-c2cnc3ccccn23)cnc1Cl)c1ccc(F)cc1` [Example 3, N-(2-Chloro-5-imidazo[1,2-a]pyridin-3-yl-3-pyridinyl)-4-fluorobenzenesulfonamide], for which the affinity in assay [1] corresponds to a Ki of 28 nM. Further, it took 30 nM to reach half-maximal inhibition in assay [2] (IC50). `Cc1nc2ccc(Br)cn2c1-c1cnc(Cl)c(NS(=O)(=O)c2ccc(F)cc2)c1` [Example 5, N-(5-(6-Bromo-2-methylimidazo[1,2-a]pyridin-3-yl)-2-chloro-3-pyridinyl)-4-fluorobenzenesulfonamide]: in assay [1], affinity was put at a Ki of 20 nM. Besides, in assay [2], the IC50 was determined as 16 nM. The corresponding values for `COc1cc(-c2cnc3ccc(N4CCOC4=O)cn23)cnc1OC` [Example 13, 3-(3-(5,6-Dimethoxy-3-pyridinyl)imidazo[1,2-a]pyridin-6-yl)-1,3-oxazolidin-2-one] are > 1500 nM and 4670 nM.

In assay [1], `O=S(=O)(Nc1cc(-c2cnc3ccc(Cl)nn23)cnc1Cl)c1ccc(F)cc1` [Example 25, N-(2-Chloro-5-(6-chloroimidazo[1,2-b]pyridazin-3-yl)pyridin-3-yl)-4-fluorobenzenesulfonamide] showed a Ki of 22 nM. The compound also had an IC50 in assay [2] of 47 nM. For `CN(C)S(=O)(=O)Nc1cc(-c2cnc3cc(-c4cccnc4)ccn23)cnc1Cl` [Example 22, N′-(2-Chloro-5-(7-(3-pyridinyl)imidazo[1,2-a]pyridin-3-yl)-3-pyridinyl)-N,N-dimethylsulfamide], the affinity in assay [1] corresponds to a Ki of 21 nM. This counts as double-digit nanomolar. Same read-out and setting: next, `COc1cc(-c2cnc3ccc(N4CCOCC4)cn23)cnc1OC` [Example 16, 3-(5,6-Dimethoxy-3-pyridinyl)-6-(4-morpholinyl)imidazo[1,2-a]pyridine]: 1080 nM.
